{"source": "patent US9066516B2", "about": "“Uses of thaxtomin and thaxtomin compositions as herbicides” (priority 2008, dated 2015); on Rating at 0.1 mg/ml (Reduction of Germination): ranges in brackets are in %", "key": {"ragweed": {"tested_on": "ragweed", "assay": "Greenhouse synergy test MBI-005 + commercial herbicides (Example 11)", "type": "in vivo", "conditions": "14 days", "protocol": "The test species barnyard grass, ragweed, sedge, and broad-leaf mustard were used for the valuation of synergy between MBI-005 and the rice herbicides clomazone, penoxsulam, cyhalofop, fenoxaprop-p-ethyl, bispyribac-sodium, thiobencarb, and propanil.\n[…] other herbicides commonly used for field crops, glyphosate, glufosinate, synthetic version of bialaphos, and mesotrione were also tested for synergy with MBI-005 on crabgrass and ragweed.\n(§1) There were 3 replicates per treatment which were sprayed with approximately ⅔ ml per replicate. The treatments were completely randomized and kept in a greenhouse at 25° C. The efficacy was rated at 7 and 14 days post treatment."}, "dandelion": {"tested_on": "dandelion", "assay": "Greenhouse synergy test MBI-005 + turf herbicides (Example 11)", "type": "in vivo", "conditions": "14 days", "protocol": "(§2) The common turf weeds dandelion and plantain were used in testing for synergy between MBI-005 and 2, 4- or dicamba, two common turf herbicides.\nas §1"}, "plantain": {"tested_on": "plantain", "assay": "Greenhouse synergy test MBI-005 + turf herbicides (Example 11)", "type": "in vivo", "conditions": "14 days", "protocol": "as §2, §1"}, "[1]": {"tested_on": "Bittercress (Cardamine hirsuta)", "assay": "Pre-emergence test of MBI-005, field (Example 12)", "type": "in vivo", "conditions": "pre-emergent", "protocol": "(§3) In field testing, field soil containing weed seeds were treated with 38.2 L MBI-005/ha at a spray volume of 280 L/ha using a CO2 sprayer with flat fan nozzles. Treatments, including water as the negative control and Gallery as the positive control, were replicated four times and applied twice at a four week interval. Treatments were evaluated visually as % cover and above-ground fresh weights per container were taken."}, "[2]": {"tested_on": "Chickweed (Stellaria media)", "assay": "Pre-emergence test of MBI-005, field (Example 12)", "type": "in vivo", "conditions": "pre-emergent", "protocol": "as §3"}, "[3]": {"tested_on": "Common groundsel (Senecio vulgaris)", "assay": "Pre-emergence test of MBI-005, field (Example 12)", "type": "in vivo", "conditions": "pre-emergent", "protocol": "as §3"}, "[4]": {"tested_on": "Common yellow oxalis (Oxalis stricta)", "assay": "Pre-emergence test of MBI-005, field (Example 12)", "type": "in vivo", "conditions": "pre-emergent", "protocol": "as §3"}, "[5]": {"tested_on": "Dandelion (Taraxacum oficinale)", "assay": "Pre-emergence test of MBI-005, field (Example 12)", "type": "in vivo", "conditions": "pre-emergent", "protocol": "as §3"}, "Eclipta (Eclipta alba)": {"tested_on": "Eclipta (Eclipta alba)", "assay": "Pre-emergence test of MBI-005, field (Example 12)", "type": "in vivo", "conditions": "pre-emergent", "protocol": "as §3"}, "[6]": {"tested_on": "Flexuous bittercress (Cardamine flexuosa)", "assay": "Pre-emergence test of MBI-005, field (Example 12)", "type": "in vivo", "conditions": "pre-emergent", "protocol": "as §3"}, "[7]": {"tested_on": "Hairy galinsoga (Galinsoga ciliata)", "assay": "Pre-emergence test of MBI-005, field (Example 12)", "type": "in vivo", "conditions": "pre-emergent", "protocol": "as §3"}, "[8]": {"tested_on": "Henbit (Lamimum amplexicaule)", "assay": "Pre-emergence test of MBI-005, field (Example 12)", "type": "in vivo", "conditions": "pre-emergent", "protocol": "as §3"}, "[9]": {"tested_on": "Marsh watercress (Rorippa islandica)", "assay": "Pre-emergence test of MBI-005, field (Example 12)", "type": "in vivo", "conditions": "pre-emergent", "protocol": "as §3"}, "[10]": {"tested_on": "New Zealand moss (Sagina procumbens)", "assay": "Pre-emergence test of MBI-005, field (Example 12)", "type": "in vivo", "conditions": "pre-emergent", "protocol": "as §3"}, "[11]": {"tested_on": "Shepherd's purse (Capsella bursa-pastora)", "assay": "Pre-emergence test of MBI-005, field (Example 12)", "type": "in vivo", "conditions": "pre-emergent", "protocol": "as §3"}, "[12]": {"tested_on": "Velvetleaf (Abutilon theophrasti)", "assay": "Pre-emergence test of MBI-005, field (Example 12)", "type": "in vivo", "conditions": "pre-emergent", "protocol": "as §3"}, "crabgrass": {"tested_on": "crabgrass", "assay": "Post-emergent MBI-005 + Chelated Fe on crabgrass (Example 16)", "type": "in vivo", "conditions": "15 DAT", "protocol": "Ten seedlings in 2.5 cm square pots containing plant growth mix were sprayed with two suboptimal rates of MBI-005, 14.49 mg/mL of Chelated Fe, or a combination thereof, at a volume of 40 gal/A using a cabinet track sprayer. Negative controls were sprayed with water. Pots were randomly placed in a growth room at 25° C. and 50% RH, and watered as necessary. Treatments were replicated five times and evaluated at 7 and 15 days for visual % damage, with 0% indicating no damage and 100% indicating plant death.\nSynergy was calculated as the ratio of observed (E) to expected (E/Ee) percent control using Colby's formula."}, "[13]": {"tested_on": "annual grasses and broadleaves, some perennials", "assay": "Pre-emergence spectrum of MBI-005, overall (Example 12)", "type": "in vivo", "conditions": "some perennials (Table 12)", "protocol": "To further describe the spectrum of pre-emergence activity, tests were conducted in laboratory and field conditions. In laboratory testing, 35 seeds were placed on a ring of blotter paper inside a 3 cm petri dish and supplied with 4 ml of MBI-005 (≦0.1 mg MBI-005/ml). Water was used as a negative control and oryzalin applied as a positive control. Petri dishes were randomly placed in a growth room at 25° C. and 50% RH. Treatments were replicated three times and germinated seeds were counted 7 and 14 days after application; water was added as necessary to maintain moisture levels inside each petri dish.\nas §3"}, "[14]": {"tested_on": "annual broadleaves, sedges and grasses", "assay": "Post-emergence spectrum of MBI-005, overall (Example 13)", "type": "in vivo", "conditions": "unless surfactants are added", "protocol": "To further describe the spectrum of post-emergence activity, tests were conducted in laboratory and field conditions. For laboratory testing, 3-10 plants (depending on the species) at the 1-2 leaf stage plants in 2.5 cm square pots containing Sunshine Mix No. 2 planting media were sprayed at 1 mg MBI-005/mL at a rate of 40 gal/A using a cabinet track sprayer. Negative controls were sprayed with water and positive controls with glufosinate. Pots were randomly placed in a growth room at 25° C. and 50% RH, and watered as necessary. Treatments were replicated five times and evaluated at 7 and 14 days for visual % damage, with 0% indicating no damage and 100% indicating plant death.\nIn field testing, field soil containing weeds at the 1-5 leaf stage were treated with 38.2 L MBI-005/ha at a spray volume of 374 L/ha. Treatments, including water as the negative control and WeedBGon or Preen Broadleaf as the positive control, were replicated four times and applied twice at a four week interval. The positive control on Late watergrass, Ricefield Bulrush, Smallflower sedge and Arrowhead was an herbicide containing as active ingredient 2,4-D and an organosilicone surfactant was added to MBI-005. Treatments were assessed for % control and % ground cover.\nPost-emergent control of perennials was generally limited except for Oxalis pes-caprae."}, "[15]": {"conditions": "in vivo; cited from earlier work"}}}
{"smiles": "CN1C(=O)[C@](O)(Cc2cccc(O)c2)N(C)C(=O)[C@@H]1Cc1c[nH]c2cccc([N+](=O)[O-])c12", "note": "[thaxtomin A]", "values": [{"measurement": "% Control MBI-005", "setting": "ragweed; MBI-005 0.125 mg/mL (bispyribac-sodium line)", "result": 23.3, "unit": "%"}, {"measurement": "% Control MBI-005", "setting": "ragweed; MBI-005 0.125 mg/mL (glufosinate line)", "result": 37.5, "unit": "%"}, {"measurement": "% Control MBI-005", "setting": "ragweed; MBI-005 0.125 mg/mL (glyphosate line)", "result": 6.7, "unit": "%"}, {"measurement": "% Control MBI-005", "setting": "dandelion; MBI-005 0.1 mg/mL (2, 4-D line)", "result": 20.0, "unit": "%"}, {"measurement": "% Control MBI-005", "setting": "dandelion; MBI-005 0.1 mg/mL (dicamba line)", "result": 20.0, "unit": "%"}, {"measurement": "% Control MBI-005", "setting": "plantain; MBI-005 0.12 mg/mL (dicamba line)", "result": 10.0, "unit": "%"}, {"measurement": "% Control MBI-005", "setting": "plantain; MBI-005 0.24 mg/mL (2, 4-D line)", "result": 25.0, "unit": "%"}, {"measurement": "Rating at 0.1 mg/ml (Reduction of Germination)", "setting": "[1]", "result": "+++ (85-94)"}, {"measurement": "Rating at 0.1 mg/ml (Reduction of Germination)", "setting": "[2]", "result": "++++ (95-100)"}, {"measurement": "Rating at 0.1 mg/ml (Reduction of Germination)", "setting": "[3]", "result": "++++ (95-100)"}, {"measurement": "Rating at 0.1 mg/ml (Reduction of Germination)", "setting": "[4]", "result": "++++ (95-100)"}, {"measurement": "Rating at 0.1 mg/ml (Reduction of Germination)", "setting": "[5]", "result": "++++ (95-100)"}, {"measurement": "Rating at 0.1 mg/ml (Reduction of Germination)", "setting": "Eclipta (Eclipta alba)", "result": "++ (60-84)"}, {"measurement": "Rating at 0.1 mg/ml (Reduction of Germination)", "setting": "[6]", "result": "++ (60-84)"}, {"measurement": "Rating at 0.1 mg/ml (Reduction of Germination)", "setting": "[7]", "result": "+++ (85-94)"}, {"measurement": "Rating at 0.1 mg/ml (Reduction of Germination)", "setting": "[8]", "result": "+++ (85-94)"}, {"measurement": "Rating at 0.1 mg/ml (Reduction of Germination)", "setting": "[9]", "result": "++++ (95-100)"}, {"measurement": "Rating at 0.1 mg/ml (Reduction of Germination)", "setting": "[10]", "result": "++++ (95-100)"}, {"measurement": "Rating at 0.1 mg/ml (Reduction of Germination)", "setting": "[11]", "result": "++++ (95-100)"}, {"measurement": "Rating at 0.1 mg/ml (Reduction of Germination)", "setting": "[12]", "result": "++ (60-84)"}, {"measurement": "AVG E (visual % damage)", "setting": "crabgrass; 12.5% MBI-005 (0.125 mg/mL)", "result": 1.3, "unit": "%"}, {"measurement": "AVG E (visual % damage)", "setting": "crabgrass; 25% MBI-005 (0.25 mg/mL)", "result": 1.3, "unit": "%"}, {"measurement": "pre-emergence spectrum of activity", "setting": "[13]", "result": "broad spectrum activity"}, {"measurement": "post-emergent activity", "setting": "[14]", "result": "limited post-emergent activity"}, {"measurement": "activity as pre and post emergent, non-systemic herbicides", "setting": "[15]", "result": "marked activity"}]}
